The values below come from patent US7326721B2 (Hypnion, Inc., priority 2003, dated 2008).

The target of one data set is T1, M1 muscarinic receptor (Homo sapiens, UniProt P11229).
T1 sequence (P11229 1-460): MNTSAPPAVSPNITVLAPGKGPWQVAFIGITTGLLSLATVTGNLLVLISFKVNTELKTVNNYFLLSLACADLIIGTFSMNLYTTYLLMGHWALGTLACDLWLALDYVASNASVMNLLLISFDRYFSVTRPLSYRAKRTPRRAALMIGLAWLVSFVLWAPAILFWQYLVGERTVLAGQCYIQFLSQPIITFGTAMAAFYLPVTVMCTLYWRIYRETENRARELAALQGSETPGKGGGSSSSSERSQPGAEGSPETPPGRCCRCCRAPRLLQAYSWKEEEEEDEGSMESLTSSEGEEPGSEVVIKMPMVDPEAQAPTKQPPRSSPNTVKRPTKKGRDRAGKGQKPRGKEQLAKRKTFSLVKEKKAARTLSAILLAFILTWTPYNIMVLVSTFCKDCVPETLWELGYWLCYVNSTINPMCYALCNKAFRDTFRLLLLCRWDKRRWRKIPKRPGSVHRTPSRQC
The data set can be described thus: Muscarinic M1 binding assay ([3H]-scopolamine, N-methyl chloride). Details: purchased PerkinElmer, Inc., Wellesley, Mass; host or cells: CHO cells. The settings on record: read-out: Ki M1.

Another data set deals with T2, H1 histamine receptor (Bos taurus, UniProt P30546).
T2 construct: the receptors were obtained from bovine cerebellar membrane tissue; from tissue; host or cells: bovine cerebellar membranes
T2 sequence (P30546 whole entry): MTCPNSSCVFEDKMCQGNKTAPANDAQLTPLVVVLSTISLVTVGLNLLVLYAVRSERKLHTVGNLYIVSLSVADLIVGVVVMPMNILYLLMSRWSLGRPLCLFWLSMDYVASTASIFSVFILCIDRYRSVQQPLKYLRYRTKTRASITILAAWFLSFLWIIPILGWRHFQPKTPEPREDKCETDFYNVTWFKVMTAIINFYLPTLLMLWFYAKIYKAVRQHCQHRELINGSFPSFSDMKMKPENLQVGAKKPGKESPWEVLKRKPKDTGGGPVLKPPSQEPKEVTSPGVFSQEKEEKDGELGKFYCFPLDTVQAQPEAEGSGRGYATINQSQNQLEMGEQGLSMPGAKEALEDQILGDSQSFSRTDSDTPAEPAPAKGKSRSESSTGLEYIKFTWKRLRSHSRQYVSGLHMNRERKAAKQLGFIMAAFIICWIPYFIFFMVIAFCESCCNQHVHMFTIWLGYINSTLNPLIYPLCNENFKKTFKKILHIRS
Kind of data set: Histamine H1 competitive binding assay ([3H]pyrilamine). The arrangement: species or system bovine. The conditions noted are these: read-out: Ki H1.

For the next data set, the target named is T3, M2 muscarinic receptor (Homo sapiens, UniProt P08172).
T3 sequence (P08172 1-466): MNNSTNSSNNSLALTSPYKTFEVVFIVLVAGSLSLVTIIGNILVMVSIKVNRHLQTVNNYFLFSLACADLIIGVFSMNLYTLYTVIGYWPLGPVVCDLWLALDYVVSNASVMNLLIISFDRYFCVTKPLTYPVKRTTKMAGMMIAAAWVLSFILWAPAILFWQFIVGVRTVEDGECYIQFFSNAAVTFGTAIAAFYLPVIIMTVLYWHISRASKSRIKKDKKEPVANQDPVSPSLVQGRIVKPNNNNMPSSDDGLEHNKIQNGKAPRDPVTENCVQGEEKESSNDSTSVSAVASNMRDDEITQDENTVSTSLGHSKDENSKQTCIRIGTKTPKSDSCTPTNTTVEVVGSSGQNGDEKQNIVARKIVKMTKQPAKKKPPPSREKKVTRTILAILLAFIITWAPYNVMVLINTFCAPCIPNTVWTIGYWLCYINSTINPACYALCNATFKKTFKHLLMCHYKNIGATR
Kind of data set: Muscarinic M2 binding assay. The settings on record: for Ki: read-out: Ki M2. Details: purchased PerkinElmer, Inc., Wellesley, Mass; host or cells: CHO cells.

Another data set deals with adult male Wistar rats. The data set can be described thus: SCORE-2000 sleep-wakefulness, locomotor activity and body temperature monitoring. In kind it is in vivo, rat.
The target of another data set is hERG (Homo sapiens, UniProt Q12809). The conditions noted are these: human, 10 µM, pH 7.4.
Chain of hERG (Q12809 whole entry): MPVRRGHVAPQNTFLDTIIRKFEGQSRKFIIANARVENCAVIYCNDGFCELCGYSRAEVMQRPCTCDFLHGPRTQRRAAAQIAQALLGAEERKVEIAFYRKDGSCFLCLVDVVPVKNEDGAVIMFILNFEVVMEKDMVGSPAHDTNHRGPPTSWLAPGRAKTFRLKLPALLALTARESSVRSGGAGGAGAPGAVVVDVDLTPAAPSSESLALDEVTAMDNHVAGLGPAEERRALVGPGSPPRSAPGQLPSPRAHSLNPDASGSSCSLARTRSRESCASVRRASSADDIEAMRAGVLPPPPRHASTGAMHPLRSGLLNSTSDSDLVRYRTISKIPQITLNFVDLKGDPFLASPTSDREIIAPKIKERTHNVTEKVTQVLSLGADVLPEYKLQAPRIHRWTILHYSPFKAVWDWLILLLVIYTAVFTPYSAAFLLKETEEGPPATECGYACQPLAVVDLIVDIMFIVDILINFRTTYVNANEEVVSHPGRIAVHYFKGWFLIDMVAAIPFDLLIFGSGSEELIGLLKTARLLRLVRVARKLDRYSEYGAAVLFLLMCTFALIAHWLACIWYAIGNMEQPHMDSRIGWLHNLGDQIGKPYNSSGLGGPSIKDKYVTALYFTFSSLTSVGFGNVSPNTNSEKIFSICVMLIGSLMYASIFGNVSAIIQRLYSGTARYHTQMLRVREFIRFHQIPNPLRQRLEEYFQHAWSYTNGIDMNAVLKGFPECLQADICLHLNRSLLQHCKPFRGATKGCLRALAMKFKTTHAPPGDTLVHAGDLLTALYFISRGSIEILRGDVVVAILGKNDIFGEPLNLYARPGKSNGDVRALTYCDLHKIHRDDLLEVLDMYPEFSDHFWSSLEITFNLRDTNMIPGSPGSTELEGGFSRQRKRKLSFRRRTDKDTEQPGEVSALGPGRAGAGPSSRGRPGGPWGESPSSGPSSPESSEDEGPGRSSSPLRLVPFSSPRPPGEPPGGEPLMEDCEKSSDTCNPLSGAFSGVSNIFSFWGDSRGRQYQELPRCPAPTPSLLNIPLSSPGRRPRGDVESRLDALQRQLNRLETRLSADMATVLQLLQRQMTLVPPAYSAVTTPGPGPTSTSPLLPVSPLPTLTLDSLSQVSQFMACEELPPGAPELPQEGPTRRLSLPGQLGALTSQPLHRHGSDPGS
For another data set, the target named is M3 muscarinic receptor (Homo sapiens, UniProt P20309). Kind of data set: Muscarinic M3 binding assay. The arrangement: purchased PerkinElmer, Inc., Wellesley, Mass; host or cells: CHO cells. The settings on record: read-out: Ki M3.
Chain of M3 muscarinic receptor (P20309 whole entry): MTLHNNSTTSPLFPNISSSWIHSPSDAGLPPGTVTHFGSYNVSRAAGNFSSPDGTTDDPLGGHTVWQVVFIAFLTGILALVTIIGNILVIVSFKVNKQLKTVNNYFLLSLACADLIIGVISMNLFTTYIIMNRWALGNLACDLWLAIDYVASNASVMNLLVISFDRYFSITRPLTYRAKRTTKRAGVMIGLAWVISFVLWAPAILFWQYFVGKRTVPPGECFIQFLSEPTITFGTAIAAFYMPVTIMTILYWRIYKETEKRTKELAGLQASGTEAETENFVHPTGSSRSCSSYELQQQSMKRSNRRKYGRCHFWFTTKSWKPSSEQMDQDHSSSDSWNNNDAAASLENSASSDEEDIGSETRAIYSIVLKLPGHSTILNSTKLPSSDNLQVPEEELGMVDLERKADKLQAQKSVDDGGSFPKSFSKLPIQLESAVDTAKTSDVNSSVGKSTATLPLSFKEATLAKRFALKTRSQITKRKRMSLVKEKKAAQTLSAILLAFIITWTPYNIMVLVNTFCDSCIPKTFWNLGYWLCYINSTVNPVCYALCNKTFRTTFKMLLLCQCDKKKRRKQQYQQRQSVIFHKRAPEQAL

Consider `O=C(O)C1(CN2CCC(=C3c4ccc(Cl)cc4COc4ccccc43)CC2)CC1` [Compound 51b], for which the Ki is above 10 µM at M1 muscarinic receptor, 0.072 µM on H1 histamine receptor, above 10 µM on M2 muscarinic receptor and above 10 µM on M3 muscarinic receptor. For the same molecule, the LUSB in the data set with adult male Wistar rats (dose 3 mg/kg oral at CT-18) came out at 8.4 min; in the data set on adult male Wistar rats (dose 10 mg/kg oral at CT-18) it was 8.3 min; in the data set with adult male Wistar rats (dose 30 mg/kg oral at CT-18) it was 128 min. Also, the NREM with adult male Wistar rats (dose 3 mg/kg oral at CT-18) was 34.7 min; with adult male Wistar rats (dose 10 mg/kg oral at CT-18), 45 min; in the data set with adult male Wistar rats (dose 30 mg/kg oral at CT-18), 60.4 min. Moreover, at hERG, the “hERG at micromolar (% blocking of the hERG channel)” value is recorded as 23% @ 10.

`COc1ccc2c(c1)C(=C1CCN(CCC3(C(=O)O)CC3)CC1)c1ccccc1CO2` [Compound 67b]: the Ki on M1 muscarinic receptor was above 10 µM; at H1 histamine receptor, 0.0625 µM; on M2 muscarinic receptor, above 10 µM; at M3 muscarinic receptor, above 10 µM. Moreover, the LUSB in the data set with adult male Wistar rats (dose 10 mg/kg oral at CT-18) stood at 4.6 min; with adult male Wistar rats (dose 30 mg/kg oral at CT-18), 10 min. The results for the NREM in the data set with adult male Wistar rats (dose 10 mg/kg oral at CT-18) and with adult male Wistar rats (dose 30 mg/kg oral at CT-18) were 12.6 min and 21.1 min, respectively.

With `O=C(O)C1(CN2CCC(=C3c4ccc(F)cc4COc4ccccc43)CC2)CC1` [Compound 49b], the Ki on M1 muscarinic receptor was above 10 µM; at H1 histamine receptor, 0.0614 µM; on M2 muscarinic receptor, above 10 µM; on M3 muscarinic receptor, above 10 µM. The values for the LUSB in the data set on adult male Wistar rats (dose 3 mg/kg oral at CT-18), in the data set on adult male Wistar rats (dose 10 mg/kg oral at CT-18) and in the data set on adult male Wistar rats (dose 30 mg/kg oral at CT-18) were 10.4 min, 13.1 min and 15.9 min, respectively. Moreover, the NREM was found to be 22.5 min in the data set with adult male Wistar rats (dose 3 mg/kg oral at CT-18), 47.3 min with adult male Wistar rats (dose 10 mg/kg oral at CT-18) and 43.2 min in the data set on adult male Wistar rats (dose 30 mg/kg oral at CT-18). The “hERG at micromolar (% blocking of the hERG channel)” value at hERG came to 3.1% @ 10.

On to `COc1ccc2c(c1)COc1ccccc1C2=C1CCN(CCC2(C(=O)O)CC2)CC1` [Compound 62b], for which the Ki at M1 muscarinic receptor was above 10 µM; on H1 histamine receptor, 0.0565 µM; at M2 muscarinic receptor, above 10 µM; at M3 muscarinic receptor, above 10 µM.

In the case of `COc1ccc2c(c1)C(=C1CCN(CC(C)(C)C(=O)O)CC1)c1ccc(F)cc1CO2` [Compound 46a], the inhibitory constant (Ki) is above 10 µM at M1 muscarinic receptor, 0.134 µM at H1 histamine receptor, 2.45 µM at M2 muscarinic receptor and above 10 µM at M3 muscarinic receptor. For the same molecule, the LUSB in the data set on adult male Wistar rats (dose 3 mg/kg oral at CT-18) came to 5 min; in the data set on adult male Wistar rats (dose 10 mg/kg oral at CT-18), 8.2 min. Further, the NREM with adult male Wistar rats (dose 3 mg/kg oral at CT-18) worked out at 12.1 min; with adult male Wistar rats (dose 10 mg/kg oral at CT-18), 36 min.

Consider `COc1ccc2c(c1)COc1ccccc1C2=C1CCN(CCC(C)(C)C(=O)O)CC1` [Compound 62a], for which the Ki at M1 muscarinic receptor is above 10 µM; at H1 histamine receptor, 0.128 µM; at M2 muscarinic receptor it was above 10 µM; on M3 muscarinic receptor, above 10 µM. For the same molecule, the values for the LUSB with adult male Wistar rats (dose 10 mg/kg oral at CT-18) and in the data set on adult male Wistar rats (dose 30 mg/kg oral at CT-18) were 7.4 min and 9.1 min, respectively. For the same molecule, the NREM in the data set on adult male Wistar rats (dose 10 mg/kg oral at CT-18) was 23.2 min; in the data set on adult male Wistar rats (dose 30 mg/kg oral at CT-18), 25.2 min. Moreover, on hERG, the “hERG at micromolar (% blocking of the hERG channel)” value was 13.6% @ 10.

As to `CC(C)(CCN1CCC(=C2c3ccc(F)cc3COc3ccccc32)CC1)C(=O)O` [Compound 61a], the inhibitory constant (Ki) at M1 muscarinic receptor is above 10 µM; at H1 histamine receptor, 0.182 µM; on M2 muscarinic receptor, above 10 µM; on M3 muscarinic receptor, above 10 µM. Besides, the LUSB in the data set with adult male Wistar rats (dose 3 mg/kg oral at CT-18) is 3.1 min; in the data set on adult male Wistar rats (dose 10 mg/kg oral at CT-18) it was 9.7 min; in the data set on adult male Wistar rats (dose 30 mg/kg oral at CT-18), 10.1 min. In addition, the NREM turned out to be 13.9 min with adult male Wistar rats (dose 3 mg/kg oral at CT-18), 24 min with adult male Wistar rats (dose 10 mg/kg oral at CT-18) and 45.8 min with adult male Wistar rats (dose 30 mg/kg oral at CT-18). Further, the “hERG at micromolar (% blocking of the hERG channel)” value at hERG was determined as 12.6% @ 10.

In the case of `COc1ccc2c(c1)COc1ccc(F)cc1C2=C1CCN(CC(C)(C)C(=O)O)CC1` [Compound 47a], the Ki at M1 muscarinic receptor was above 10 µM; on H1 histamine receptor, 0.111 µM; at M2 muscarinic receptor, above 10 µM; on M3 muscarinic receptor, above 10 µM. Further, the LUSB in the data set with adult male Wistar rats (dose 1 mg/kg oral at CT-18) worked out at 2.9 min; in the data set with adult male Wistar rats (dose 3 mg/kg oral at CT-18), 5.5 min; in the data set with adult male Wistar rats (dose 10 mg/kg oral at CT-18), 16.7 min; in the data set with adult male Wistar rats (dose 30 mg/kg oral at CT-18), 10 min. The NREM with adult male Wistar rats (dose 1 mg/kg oral at CT-18) came out at 5.5 min; in the data set with adult male Wistar rats (dose 3 mg/kg oral at CT-18), 32.3 min; in the data set with adult male Wistar rats (dose 10 mg/kg oral at CT-18), 41.1 min; in the data set on adult male Wistar rats (dose 30 mg/kg oral at CT-18), 56.9 min. Also, the “hERG at micromolar (% blocking of the hERG channel)” value on hERG was 1% @ 10.

For `O=C(O)C1(CCN2CCC(=C3c4ccc(F)cc4COc4ccccc43)CC2)CC1` [Compound 61b], the inhibitory constant (Ki) is 0.569 µM at M1 muscarinic receptor, 0.0122 µM at H1 histamine receptor, 3.09 µM on M2 muscarinic receptor and above 10 µM on M3 muscarinic receptor. Besides, the LUSB turned out to be 3.6 min in the data set on adult male Wistar rats (dose 3 mg/kg oral at CT-18), 14.6 min with adult male Wistar rats (dose 10 mg/kg oral at CT-18) and 9.7 min with adult male Wistar rats (dose 30 mg/kg oral at CT-18). Further, the values for the NREM in the data set with adult male Wistar rats (dose 3 mg/kg oral at CT-18), in the data set on adult male Wistar rats (dose 10 mg/kg oral at CT-18) and in the data set with adult male Wistar rats (dose 30 mg/kg oral at CT-18) were 11.3 min, 34.8 min and 57.4 min, respectively. Also, the “hERG at micromolar (% blocking of the hERG channel)” value at hERG is recorded as 85.9% @ 10.

For the molecule `CCC(CC)(CN1CCC(=C2c3ccc(F)cc3COc3ccccc32)CC1)C(=O)O` [Compound 49c], the Ki at M1 muscarinic receptor was above 10 µM; on H1 histamine receptor it was 0.0299 µM; on M2 muscarinic receptor, above 10 µM; on M3 muscarinic receptor, above 10 µM. Further, the “hERG at micromolar (% blocking of the hERG channel)” value on hERG was found to be 19.7% @ 10.

As for `COc1ccc2c(c1)COc1ccccc1C2=C1CCN(CC2(C(=O)O)CC2)CC1` [Compound 50b], the inhibitory constant (Ki) is above 10 µM at M1 muscarinic receptor, 0.0698 µM at H1 histamine receptor, above 10 µM on M2 muscarinic receptor and above 10 µM on M3 muscarinic receptor. The LUSB with adult male Wistar rats (dose 3 mg/kg oral at CT-18) was 6.9 min; with adult male Wistar rats (dose 10 mg/kg oral at CT-18) it was 8.1 min; with adult male Wistar rats (dose 30 mg/kg oral at CT-18), 14.3 min. In addition, the NREM in the data set on adult male Wistar rats (dose 3 mg/kg oral at CT-18) was 10.7 min; with adult male Wistar rats (dose 10 mg/kg oral at CT-18), 24.2 min; in the data set on adult male Wistar rats (dose 30 mg/kg oral at CT-18), 51.9 min. Besides, the “hERG at micromolar (% blocking of the hERG channel)” value on hERG amounted to 27.1% @ 10.

Regarding `C[N+]1(C)C2CC(OC(=O)C(CO)c3ccccc3)CC1C1OC12.[Br-]` (single isomer, unassigned; (-)) [(−)-scopolamine, MeBr, (−)-scopolamine, methyl-, bromide, reference compound], the Slope at M2 muscarinic receptor (M2 binding curve (Table 17)) is reported as −0.89.
